Laboratory results from patent US20240124467A1, “FUSED PYRIMIDINE COMPOUNDS AS INHIBITORS OF MENIN-MLL INTERACTION” (Biomea Fusion, Inc., priority 2020, published 2024).
Read-outs that look alike come from different tables or passages of the source.

How the values were obtained:
Format in all cases: cell-based
MV4-11 = assay: Cell proliferation inhibition (CellTiter-Glo), MV4-11 cells; conditions: Homo sapiens, MV4-11 (MLL-AF4)
Summary of the method: (§1)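 Leukemia lines in RPMI-1640/10% FBS at 37° C. were exposed in duplicate to seven compound concentrations (5.00×10^−6 to 6.86×10^−9 M), with 0.2% DMSO as 100% proliferation. At day 4 cells were diluted 1:4 in fresh medium containing compound. Viability was read by CellTiter-Glo luminescence at day 4 and day 7.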

K-562 = assay: Cell proliferation inhibition (CellTiter-Glo), K-562 cells; conditions: Homo sapiens, K-562 (BCR-ABL)
Summary of the method: as §1

U-937 = assay: Cell proliferation inhibition (CellTiter-Glo), U-937 cells; conditions: Homo sapiens, U-937 (MLL-wt), Table 3
Protocol: (§2) The present example evaluates the ability of compounds described herein, inhibitors of Menin/MLL interaction, to inhibit cell proliferation. The proliferation inhibitory effect was investigated in human MLL-leukemia cells selected on the bases of MLL fusion proteins and listed in the table below.
(§3) ATP is present in all metabolically active cells and is considered as a marker for cell viability and proliferation. The metabolic cell activity was determined using the CellTiter-Glo kit from Promega, an ATP monitoring system based on the production of luminescence by the reaction of ATP with added UltraGlo® recombinant luciferase (Kawano et al., 2016, PLOS One, 8:11(7):e0158888), according to the supplier's experimental recommendations. The assay is based on a 96 well plate format. All experiments were carried out in duplicate in one test occasion.
(§4) Test items were dissolved at 20 mM in DMSO with purity ≥99.9% (Sigma catalog no. D8418) and stored at −20° C. Cells were maintained in RPMI-1640 medium (Invitrogen catalog no. 618700) supplemented with 10% of Heat Inactivated FBS (Invitrogen catalog no. 10500) and 1% Pen-Strep (Invitrogen catalog no. 15140) and cultured at 37° C. in a humidified incubator with 5% CO2. Cell lines were grown in suspension and the cell density was maintained in a range of 5×10^4-1×10^6 viable cells/ml where possible. Cells were pelleted at 130 g×5 min.
(§5) Serial dilutions of compounds 1 to 3 in DMSO 100% were prepared starting from a 2.5 mM solutions (prepared by diluting 1:8 the 20 mM stock solution) to generate a 7 point concentration response curve (CRC). Seven concentrations of test compounds (e.g., 5.00×10^−6-1.67×10^−6-5.56×10^−7-1.85×10^−7-6.17×10^−8-2.06×10^−8-6.86×10^−9 M) were assessed in duplicate in an individual test occasion in parallel in the selected cell lines. KO-539 was used as a reference compound and tested in duplicate at seven similar concentrations. 100% of proliferation was represented by the untreated cells (0.2% DMSO).
(§6) Cell proliferation inhibition was monitored at both the following end points: Day 4 (T4) and Day 7 (T7). For the appropriate cell density during the exponential cell growth and re-supply with fresh compound solution at T4, cells were diluted (1:4) with fresh medium containing the compound concentration (1×).
(§7) For each plate to test, one 0.4 μL copy plate and four 0.3 μL copy plates were stamped into 96-well plates not treated for cell adhesion (Sarstedt—cat. no. 82.1581.001) by acoustic liquid handling (Echo) at a concentration which was 500 fold the final assay concentration. Stamped plates were stored at −20° C.
(§8) On Day 0, the day of the experiment cell line suspensions were counted by Cell Viability Analyser, Vi-CELL (Beckman Coulter AY15292), and diluted with fresh medium to obtain the following cell densities: K-562 500 c/ml, MOLM-13 1,000 c/ml, MV4-11 10,000 c/ml, OCI-AML-3 500 c/ml, and U-937 500-1,000 c/ml. 200 μL/well and 150 μL/well of cell suspension were added into the 0.4 μL/well and 0.3 μL/well compound plates, respectively. Cell plate containing 200 μL/well suspension were incubated at 37° C. in a humidified incubator with 5% CO2. From each well of the 150 μL/well cell assay plate, 100 μL were harvested and transferred into a 96-well Optiplate (Perkin Elmer, cat. no. 6005290). Cell viability was measured as described below.
(§9) On Day 4, 150p/well of fresh medium was added into a new 0.3 μL/well copy compound plates. From each well of the 200 μL/well cell assay plate, 100 μL was sampled for the cell viability measurement as described below. 50p was harvested and added to the 150p/well compound plate prepared as described in the first point to dilute 1:4 the cell suspension. The cell assay plate diluted and containing 200 μL/well suspension was incubated at 37° C. in a humidified incubator with 5% CO2.
(§10) On Day 4, 150p/well of fresh medium was added into a new 0.3 μL/well copy compound plates. […]

OCI-AML3 = assay: Cell proliferation inhibition (CellTiter-Glo), OCI-AML3 cells; conditions: Homo sapiens
Protocol: as §2, §3, §4, §5, §6, §7, §8, §9, §10

MOLM-13 = assay: Cell proliferation inhibition (CellTiter-Glo), MOLM-13 cells; conditions: Homo sapiens, MOLM-13 (MLL-AF9)
Summary of the method: as §1

[1] = 96 h, 4 d, Table 3, read-out: MV4-11 IC50 μM 4 d
[2] = 168 h, 7 d, Table 3, read-out: MV4-11 IC50 μM 7 d
[3] = K562, 96 h, 4 d, Table 3, read-out: K-562 IC50 μM 4 d
[4] = K562, 168 h, 7 d, Table 3, read-out: K-562 IC50 μM 7 d
[5] = 96 h, 4 d, read-out: U-937 IC50 μM 4 d
[6] = 168 h, 7 d, read-out: U-937 IC50 μM 7 d
[7] = OCI-AML-3, 96 h, 4 d, Table 3, read-out: OCI-AML3 IC50 μM 4 d
[8] = OCI-AML-3, 168 h, 7 d, Table 3, read-out: OCI-AML3 IC50 μM 7 d
[9] = 96 h, 4 d, Table 3, read-out: MOLM13 μM 4 d
[10] = 168 h, 7 d, Table 3, read-out: MOLM13 μM 7 d
[11] = 96 h, Day 4, read-out: MV-4:11 IC50 μM (Day 4)*
[12] = 168 h, Day 7, read-out: MV-4:11 IC50 μM (Day 7)*
[13] = K562, 96 h, Day 4, read-out: K-562 IC50 μM (Day 4)
[14] = K562, 168 h, Day 7, read-out: K-562 IC50 μM (Day 7)*
[15] = 96 h, Day 4, read-out: MOLM-13 Day IC50 μM (Day 4)*
[16] = 168 h, Day 7, read-out: MOLM-13 Day IC50 μM (Day 7)*

SMILES	IC50 (MV4-11; [1]) [µM]	IC50 (MV4-11; [2]) [µM]	IC50 (K-562; [3]) [µM]	IC50 (K-562; [4]) [µM]	IC50 (U-937; [5]) [µM]	IC50 (U-937; [6]) [µM]	IC50 (OCI-AML3; [7]) [µM]	IC50 (OCI-AML3; [8]) [µM]	IC50 (MOLM-13; [9]) [µM]	IC50 (MOLM-13; [10]) [µM]	IC50 (MV4-11; [11]) [µM]	IC50 (MV4-11; [12]) [µM]	IC50 (K-562; [13]) [µM]	IC50 (K-562; [14]) [µM]	IC50 (MOLM-13; [15]) [µM]	IC50 (MOLM-13; [16]) [µM]
C=CC(=O)N1CCN(CCc2ccnc(C(=O)Nc3ccc(-c4cc5c(N6CCOCC6)ncnc5[nH]4)cc3)c2)CC1 [Compound B0700-303, 4-(2-(4-acryloylpiperazin-1-yl)ethyl)-N-(4-(4-morpholino-7H-pyrrolo[2,3-d]pyrimidin-6-yl)phenyl)picolinamide]	0.051	0.05	0.085	0.028	0.043	0.022	0.076	0.05	0.049	0.034						
C=CC(=O)N1CCCC(Nc2ccnc(C(=O)Nc3ccc(-c4cc5c(N6CCOCC6)ncnc5[nH]4)cc3)c2)C1 (stereo not drawn) [Compound B0700-302, 4-((1-acryloylpiperidin-3-yl)amino)-N-(4-(4-morpholino-7H-pyrrolo[2,3-d]pyrimidin-6-yl)phenyl)picolinamide]	0.098	0.089	0.17	0.138	0.072	0.037	0.043	0.044	0.063	0.05						
C=CC(=O)N[C@@H]1CCCN(Cc2ccnc(C(=O)NC3CCN(c4nc5c(N6CCOCC6)ncnc5[nH]4)CC3)c2)C1 [Compound B0700-308, (R)-4-((3-acrylamidopiperidin-1-yl)methyl)-N-(1-(6-morpholino-9H-purin-8-yl)piperidin-4-yl)picolinamide]	> 5	> 5	> 5	> 5	> 5	> 5	> 5	> 5	> 5	> 5						
C=CC(=O)N1CC(N2CCC(CC(=O)Nc3ccc(-c4cc5c(N6CCOCC6)ncnc5[nH]4)cc3)CC2)C1 [Compound B0700-331, 2-(1-(1-acryloylazetidin-3-yl)piperidin-4-yl)-N-(4-(4-morpholino-7H-pyrrolo[2,3-d]pyrimidin-6-yl)phenyl)acetamide]	0.047	0.034	0.676	0.129	0.347	0.065	0.251	0.115	0.055	0.03						
C=CC(=O)N1CC(N2CCC(NC(=O)Nc3ccc(-c4cc5c(N6CCOCC6)ncnc5[nH]4)cc3)CC2)C1 [Compound B0700-330, 1-(1-(1-acryloylazetidin-3-yl)piperidin-4-yl)-3-(4-(4-morpholino-7H-pyrrolo[2,3-d]pyrimidin-6-yl)phenyl)urea]	0.646	0.38	4.68	1	1.62	1.05	1.05	0.813	0.631	0.447						
C=CC(=O)Nc1ccc(CC(=O)NC2CCN(c3nc4c(N5CCOCC5)ncnc4[nH]3)CC2)cc1 [Compound B0700-315, N-(4-(2-((1-(6-morpholino-9H-purin-8-yl)piperidin-4-yl)amino)-2-oxoethyl)phenyl)acrylamide]	> 5	> 5	> 5	> 5	> 5	> 5	> 5	> 5	> 5	> 5						
C=CC(=O)N[C@@H]1CCCN(Cc2ccnc(C(=O)NC3CCC(c4cc5c(N6CCOCC6)ncnc5[nH]4)CC3)c2)C1 (stereo partly drawn) [Compound B0700-526, (R)-4-((3-acrylamidopiperidin-1-yl)methyl)-N-(4-(4-morpholino-7H-pyrrolo[2,3-d]pyrimidin-6-yl)cyclohexyl)picolinamide]											6.83		> 10		3.46	

Results, then the molecule that gave them:

IC50 (MV4-11; [1]) [µM]	IC50 (MV4-11; [2]) [µM]	IC50 (K-562; [3]) [µM]	IC50 (K-562; [4]) [µM]	IC50 (U-937; [5]) [µM]	IC50 (U-937; [6]) [µM]	IC50 (OCI-AML3; [7]) [µM]	IC50 (OCI-AML3; [8]) [µM]	IC50 (MOLM-13; [9]) [µM]	IC50 (MOLM-13; [10]) [µM]	IC50 (MV4-11; [11]) [µM]	IC50 (MV4-11; [12]) [µM]	IC50 (K-562; [13]) [µM]	IC50 (K-562; [14]) [µM]	IC50 (MOLM-13; [15]) [µM]	IC50 (MOLM-13; [16]) [µM]	SMILES
										0.786	0.78	8.83	10.1	1.27	1.47	C=CC(=O)N[C@H]1CCN(c2cccc(CC(=O)Nc3ccc(-c4cc5c(N6CCOCC6)ncnc5[nH]4)cc3)c2)C1 [Compound B0700-618, (S)—N-(1-(3-(2-((4-(4-morpholino-7H-pyrrolo[2,3-d]pyrimidin-6-yl)phenyl)amino)-2-oxoethyl)phenyl)pyrrolidin-3-yl)acrylamide]
										0.304		> 10		1.63		C=CC(=O)N[C@@H]1CCCN(C(=O)c2ccnc(CNc3ccc(-c4cc5c(N6CCOCC6)ncnc5[nH]4)cc3)c2)C1 [Compound B0700-561, (R)—N-(1-(2-(((4-(4-morpholino-7H-pyrrolo[2,3-d]pyrimidin-6-yl)phenyl)amino)methyl)isonicotinoyl)piperidin-3-yl)acrylamide]
										0.138	0.1	2.19	3.65	0.197	0.164	C=CC(=O)N1CCCC(N2CC[C@@H](C(=O)Nc3ccc(-c4cc5c(N6CCOCC6)ncnc5[nH]4)cc3)C2)C1 (stereo partly drawn) [Compound B0700-608, (3R)-1-(1-acryloylpiperidin-3-yl)-N-(4-(4-morpholino-7H-pyrrolo[2,3-d]pyrimidin-6-yl)phenyl)pyrrolidine-3-carboxamide]
